{
  "source": "paper PMC4106271",
  "about": "(Journal of Medicinal Chemistry, 2014)",
  "assay": "Estimation of plasma levels after ip application (UHPLC-MS/MS)",
  "assay_type": "in vivo, mice",
  "conditions": "mouse plasma",
  "description": "At each time point, mice were euthanized and blood samples (500–800 μL) were collected and compiled into ethylenediaminetetraacetic acid (EDTA)-coated microtubes (1.6 mg of EDTA/sample) and centrifuged at 12 000 rpm for 5 min at 4 °C. Plasma samples were transferred into 1.5 mL tubes and stored at −80 °C until analysis.\nPlasma calibrators were prepared by spiking corresponding stock solutions into a blank plasma sample.\nSamples were vortexed at 1400 rpm for 10 min and then centrifuged at 13200g for 20 min at 10 °C. The supernatant was transferred into a 96-deep-well plate for drying under nitrogen gas flow (Evaporex EVX-96, Apricot Designs, Monrovia, CA) and redissolved in 200 μL of injection solvent (65% 10 mM ammonium formate + 0.05% formic acid, 35% acetonitrile + 0.05% formic acid) before MS/MS analysis.\nSeparation was performed at 55 °C on a Kinetex XB-C18 column, 100 × 2.1 mm, 1.7 μm particle size (Phenomenex; Torrance, CA); mobile phase of (A) 0.05% formic acid in 10 mM ammonium formate and (B) 0.05% formic acid in ACN, gradient 40% B for 1 min, linear gradient to reach 88% B after 5.3 min, shifted to 100% B for 1 min, and back to equilibrium condition of 40% B for 0.7 min; flow rate of 0.5 mL/min; total run time of 7 min. Sample injected volume was 1 μL and autosampler was set at 10 °C. Needle wash solution was MeOH/ACN/IPA/H2O (1:1:1:1 v/v/v/v). Flexible cube was set at a flow rate of 1 mL/min for 20 s.",
  "data": [
    {"molecule": "CCCN(CCC)C(=O)/C=C/C=C/c1ccc2c(c1)OCO2", "note": "[Compound 23, (2E,4E)-5-(1,3-benzodioxol-5-yl)-N,N-dipropyl-2,4-pentadienamide]", "values": [
      {"measurement": "mean plasma concn", "setting": "1 mg/kg body weight ip", "value": "60.6 ± 14.5", "unit": "ng/mL"},
      {"measurement": "mean plasma concn", "setting": "3 mg/kg body weight ip", "value": "194.0 ± 50.2", "unit": "ng/mL"},
      {"measurement": "mean plasma concn", "setting": "10 mg/kg body weight ip", "value": "593.0 ± 92.4", "unit": "ng/mL"}
    ]}
  ]
}
